For experiment [1], the target named is T1, LpThi5 (LpThi5-His6; Lpg1565) (Legionella pneumophila, UniProt Q5ZV75).
Experiment [2] concerns the target T1, LpThi5 (LpThi5-His6; Lpg1565). The source holds these as a separate data set.

The source of these data is article PMC8026769 (Molecular microbiology, 2020).

T1 sequence (Q5ZV75 whole entry, looked up): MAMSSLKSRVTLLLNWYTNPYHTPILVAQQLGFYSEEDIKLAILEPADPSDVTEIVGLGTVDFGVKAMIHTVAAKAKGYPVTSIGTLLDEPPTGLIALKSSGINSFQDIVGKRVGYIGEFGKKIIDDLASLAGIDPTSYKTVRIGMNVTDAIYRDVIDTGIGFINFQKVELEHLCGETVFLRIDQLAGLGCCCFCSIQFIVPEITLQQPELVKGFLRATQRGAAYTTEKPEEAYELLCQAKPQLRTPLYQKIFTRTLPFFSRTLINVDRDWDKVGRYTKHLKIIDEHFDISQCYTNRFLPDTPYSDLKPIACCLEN

As to `Cc1ncc(CO)c(N)n1` [HMP, 2-methyl-4-amino-5-hydroxymethylpyrimidine], in experiment [1], the “bioassay, HPLC and MALDI-TOF MS of released product” value is “MALDI-TOF MS identified the active molecule as HMP”.

The compound `Cc1ncc(COP(=O)(O)O)c(C=O)c1O` [PLP, pyridoxal-5’-phosphate] yielded a PLP occupancy in experiment [2] of 63 ± 2%.
